# Reference: patent US9695151B2, “3,4-dihydro-2H-isoquinoline-1-one and 2,3-dihydro-isoindol-1-one compounds” (Hoffmann-La Roche Inc., priority 2013, dated 2017)
# Key:
# [1] = system: rat model of chronic kidney disease; conditions: cited from earlier work; for cardiac and aortic medial hypertrophy / renal effects (albuminuria, azotemia, renovascular hypertrophy, glomerular injury, PAI-1 and osteopontin mRNA, tubulointerstitial fibrosis): angiotensin II and high salt treatment; for angiotensin II and salt-stimulated PAI-1 mRNA expression: aorta and heart
# [2] = system: rats with experimental heart failure; conditions: rat, in vivo; cited from earlier work
# [3] = molecular target: T1, CYP11B2 (Homo sapiens (Human), UniProt P19099); conditions: patients with primary aldosteronism, oral; cited from earlier work
# T1 sequence (P19099 25-503): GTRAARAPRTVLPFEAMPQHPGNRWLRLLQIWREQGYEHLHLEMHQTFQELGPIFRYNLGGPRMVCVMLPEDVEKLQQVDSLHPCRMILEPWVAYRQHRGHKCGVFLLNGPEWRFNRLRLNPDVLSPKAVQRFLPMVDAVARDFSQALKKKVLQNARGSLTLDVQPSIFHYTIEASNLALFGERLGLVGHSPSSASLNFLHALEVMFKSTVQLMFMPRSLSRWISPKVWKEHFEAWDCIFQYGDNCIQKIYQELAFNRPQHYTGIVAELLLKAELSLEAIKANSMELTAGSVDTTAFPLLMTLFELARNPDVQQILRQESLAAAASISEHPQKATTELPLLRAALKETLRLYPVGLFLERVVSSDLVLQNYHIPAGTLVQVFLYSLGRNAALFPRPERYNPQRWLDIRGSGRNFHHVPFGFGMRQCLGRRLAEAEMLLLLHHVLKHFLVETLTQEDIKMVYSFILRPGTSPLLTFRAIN
# [4] = molecular target: T1, CYP11B2; assay: G-402 cellular enzyme assay, human CYP11B2 (aldosterone release); assay type: cell-based; conditions: G-402 cells, 1 μM Deoxycorticosterone
# From the text: (§1) Herein we identified the use of the G-402 cell line as a host cell to ectopically express (transiently or stably) enzymes of the CYP11 family. Specifically we developed stable G-402 cells expressing ectopically human CYP11B1, human CYP11B2, human CYP11A1, cynmolgus CYP11B1 or cynomolgus CYP11B2 enzyme activity. Importantly the identified cell line G-402 expresses co-factors (adrenodoxin and adrenodoxin reductase) important for the activity of the CYP11 family and no relevant enzyme activity of the CYP11 family (in comparison to H295R cells) was detected in these cells. Therefore the G-402 cell line is uniquely suited as a host cell for the ectopic expression of enzymes from the CYP11 family.
# (§2) G-402 cells can be obtained from ATCC (CRL-1440) and were originally derived from a renal leiomyoblastoma.
# (§3) The expression plasmids contains the ORF for either human/cyno CYP11B1 or CYP11B2 under the control of a suitable promoter (CMV-promoter) and a suitable resistance marker (neomycin). Using standard techniques the expression plasmid is transfected into G-402 cells and these cells are then selected for expressing the given resistance markers. Individual cell-clones are then selected and assessed for displaying the desired enzymatic activity using 11-Deoxycorticosterone (Cyp11B2) or 11-Deoxycortisol (Cyp11B1) as a substrate.
# (§4) G-402 cells expressing CYP11 constructs were established as described above and maintained in McCoy's 5a Medium Modified, ATCC Catalog No. 30-2007 containing 10% FCS and 400 μg/ml G418 (Geneticin) at 37° C. under an atmosphere of 5% CO2/95% air. Cellular enzyme assays were performed in DMEM/F12 medium containing 2.5% charcoal treated FCS and appropriate concentration of substrate (0.3-10 uM 11-Deoxycorticosterone, 11-Deoxycortisol or Corticosterone). For assaying enzymatic activity, cells were plated onto 96 well plates and incubated for 16 h. An aliquot of the supernatant is then transferred and analyzed for the concentration of the expected product (Aldosterone for CYP11B2; Cortisol for CYP11B1). The concentrations of these steroids can be determined using HTRF assays from CisBio analyzing either Aldosterone or Cortisol.
# (§5) Inhibition of the release of produced steroids can be used as a measure of the respective enzyme inhibition by test compounds added during the cellular enzyme assay. The dose dependent inhibition of enzymatic activity by a compound is calculated by means of plotting added inhibitor concentrations (x-axes) vs. measured steroid/product level (y-axes). The inhibition is then calculated by fitting the following 4-parameter sigmoidal function (Morgan-Mercer-Flodin (MMF) model) to the raw data points using the least squares method:
# (§6) [formula] wherein, A is the maximum y value, B is the EC50 factor determined using XLFit, C is the minimum y value and D is the slope value.
# (§7) EC50 values for compounds claimed herein were tested with the G402-based assay system described. Cyp11B2 enzyme activity was tested in presence of 1 μM Deoxycorticosterone and variable amounts of inhibitors; Cyp11B1 enzyme activity was tested in presence of 1 μM Deoxycortisol and variable amounts of inhibitors.
# [5] = molecular target: human CYP11B1 (Homo sapiens (Human), UniProt P15538); assay: G-402 cellular enzyme assay, human CYP11B1 (cortisol release); assay type: cell-based; conditions: G-402 cells, 1 μM Deoxycortisol
# Sequence of human CYP11B1 (P15538 25-503): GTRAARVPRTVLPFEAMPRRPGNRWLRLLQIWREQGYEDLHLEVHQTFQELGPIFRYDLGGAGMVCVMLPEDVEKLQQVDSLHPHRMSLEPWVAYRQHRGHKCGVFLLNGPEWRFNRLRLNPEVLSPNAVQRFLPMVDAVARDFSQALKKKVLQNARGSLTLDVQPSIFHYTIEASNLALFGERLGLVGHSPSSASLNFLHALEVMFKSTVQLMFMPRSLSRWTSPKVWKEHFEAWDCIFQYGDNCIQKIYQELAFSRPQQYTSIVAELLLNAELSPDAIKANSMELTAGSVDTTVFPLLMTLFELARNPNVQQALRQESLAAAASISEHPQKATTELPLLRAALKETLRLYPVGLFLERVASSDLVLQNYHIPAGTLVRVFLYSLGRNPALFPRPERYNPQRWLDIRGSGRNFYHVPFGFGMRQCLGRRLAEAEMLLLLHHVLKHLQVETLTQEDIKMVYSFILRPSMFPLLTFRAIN
# From the text: as §1, §2, §3, §4, §5, §6, §7
Compound,EC50 [4],EC50 [5],also measured
N#Cc1ccc([C@H]2CCCc3cncn32)cc1 [FAD286],,,"cardiac and aortic medial hypertrophy [1]: attenuated; renal effects (albuminuria, azotemia, renovascular hypertrophy, glomerular injury, PAI-1 and osteopontin mRNA, tubulointerstitial fibrosis) [1]: prevented; angiotensin II and salt-stimulated PAI-1 mRNA expression [1]: not; plasma aldosterone ([1]; following 4 weeks of treatment): reduced; blood pressure and cardiovascular function and structure [2]: improved; kidney function and morphology [2]: improve"
N#Cc1ccc([C@H]2CCc3cncn32)c(F)c1 [LCI699],,,blood pressure [3]: mildly decreased; circulating aldosterone levels [3]: significantly lower; hypokalemia [3]: corrected; selectivity (effects on the glucocorticoid axis) [3]: poor selectivity
"CN(c1cncc(N2C(=O)c3ccc(Cl)cc3C2(C)C)c1)C1CN(S(C)(=O)=O)C1 [Example 11, 5-Chloro-3,3-dimethyl-2-[5-[methyl-(1-methylsulfonylazetidin-3-yl)amino]pyridin-3-yl]isoindol-1-one]",3 nM,0.05 µM,
"CCS(=O)(=O)N1CC(Nc2cncc(N3C(=O)c4ccc(Cl)cc4C3C)c2)C1 (stereo not shown) [Example 34, 5-Chloro-2-[5-[(1-ethylsulfonylazetidin-3-yl)amino]pyridin-3-yl]-3-methyl-3H-isoindol-1-one]",70 nM,4.53 µM,
"CC(C)S(=O)(=O)N1CCC(N(C)c2cncc(N3C(=O)c4ccc(Cl)cc4C3(C)C)c2)C1 (single isomer, unassigned) [Example 15, 5-Chloro-3,3-dimethyl-2-[5-[methyl-[(3S or 3R)-1-propan-2-ylsulfonylpyrrolidin-3-yl]amino]pyridin-3-yl]isoindol-1-one]",1 nM,0.732 µM,
"CCS(=O)(=O)N1CCCC(Nc2cncc(N3C(=O)c4ccc(Cl)cc4C3(C)C)c2)C1 (single isomer, unassigned) [Example 24, 5-Chloro-2-[5-[[(3R or 3S)-1-ethylsulfonylpiperidin-3-yl]amino]pyridin-3-yl]-3,3-dimethylisoindol-1-one]",352 nM,38 µM,
"CCS(=O)(=O)N1CC(Nc2cncc(N3C(=O)c4ccc(Cl)cc4[C@H]3C)c2)C1 (single isomer, unassigned) [Example 41, (3R or 3S)-5-Chloro-2-[5-[(1-ethylsulfonylazetidin-3-yl)amino]-3-pyridyl]-3-methyl-isoindolin-1-one]",39 nM,10.9 µM,
"CCC(=O)N1CC2(CC(Nc3cncc(N4C(=O)c5ccc(Cl)cc5C4(C)C)c3)C2)C1 [Example 36, 5-Chloro-3,3-dimethyl-2-[5-[(2-propanoyl-2-azaspiro[3.3]heptan-6-yl)amino]pyridin-3-yl]isoindol-1-one]",44 nM,15.4 µM,
"CCS(=O)(=O)N1CCCC(Nc2cncc(N3C(=O)c4ccc(Cl)cc4C3(C)C)c2)C1 (single isomer, unassigned) [Example 25, 5-Chloro-2-[5-[[(3S or 3R)-1-ethylsulfonylpiperidin-3-yl]amino]pyridin-3-yl]-3,3-dimethylisoindol-1-one]",443 nM,13.9 µM,
"CCCS(=O)(=O)N1CCC(N(C)c2cncc(N3C(=O)c4ccc(Cl)cc4C3(C)C)c2)C1 (single isomer, unassigned) [Example 18, 5-Chloro-3,3-dimethyl-2-[5-[methyl-[(3R or 3S)-1-propylsulfonylpyrrolidin-3-yl]amino]pyridin-3-yl]isoindol-1-one]",1 nM,0.233 µM,
"CCC(=O)N1CC(Nc2cncc(N3C(=O)c4ccc(Cl)cc4[C@H]3C)c2)C1 (single isomer, unassigned) [Example 39, (3R or 3S)-5-Chloro-3-methyl-2-[5-[(1-propanoylazetidin-3-yl)amino]-3-pyridyl]isoindolin-1-one]",92 nM,10.8 µM,
CC(=O)S[C@@H]1CC2=CC(=O)CC[C@]2(C)[C@H]2CC[C@@]3(C)[C@@H](CC[C@@]34CCC(=O)O4)[C@H]12 [spironolactone],,,"cardiac and aortic medial hypertrophy [1]: attenuated; renal effects (albuminuria, azotemia, renovascular hypertrophy, glomerular injury, PAI-1 and osteopontin mRNA, tubulointerstitial fibrosis) [1]: prevented; angiotensin II and salt-stimulated PAI-1 mRNA expression [1]: enhanced; aldosterone ([1]; at 4 and 8 weeks of treatment): increased"
"CC(C)S(=O)(=O)N1CC(N(C)c2cncc(N3C(=O)c4ccc(Cl)cc4C3(C)C)c2)C1 [Example 13, 5-Chloro-3,3-dimethyl-2-[5-[methyl-(1-propan-2-ylsulfonylazetidin-3-yl)amino]pyridin-3-yl]isoindol-1-one]",0.5 nM,0.037 µM,
"CCCS(=O)(=O)N1CCC(N(C)c2cncc(N3C(=O)c4ccc(Cl)cc4C3(C)C)c2)C1 (single isomer, unassigned) [Example 17, 5-Chloro-3,3-dimethyl-2-[5-[methyl-[(3S or 3R)-1-propylsulfonylpyrrolidin-3-yl]amino]pyridin-3-yl]isoindol-1-one]",1 nM,0.129 µM,
"CC(C)S(=O)(=O)N1CCC(N(C)c2cncc(N3C(=O)c4ccc(Cl)cc4C3(C)C)c2)C1 (single isomer, unassigned) [Example 16, 5-Chloro-3,3-dimethyl-2-[5-[methyl-[(3R or 3S)-1-propan-2-ylsulfonylpyrrolidin-3-yl]amino]pyridin-3-yl]isoindol-1-one]",0.5 nM,0.117 µM,
"CN(c1cncc(N2C(=O)c3ccc(Cl)cc3C2(C)C)c1)C1CCN(S(C)(=O)=O)CC1 [Example 21, 5-Chloro-3,3-dimethyl-2-[5-[methyl-(1-methylsulfonylpiperidin-4-yl)amino]pyridin-3-yl]isoindol-1-one]",3 nM,0.003 µM,
"CCS(=O)(=O)N1CC(Nc2cncc(N3C(=O)c4ccc(Cl)cc4C3(C)C)c2)C1 [Example 7, 5-Chloro-2-[5-[(1-ethylsulfonylazetidin-3-yl)amino]pyridin-3-yl]-3,3-dimethylisoindol-1-one]",8 nM,1.64 µM,
"CCS(=O)(=O)N1CC2(CC(Nc3cncc(N4C(=O)c5ccc(Cl)cc5C4(C)C)c3)C2)C1 [Example 37, 5-Chloro-2-[5-[(2-ethylsulfonyl-2-azaspiro[3.3]heptan-6-yl)amino]pyridin-3-yl]-3,3-dimethylisoindol-1-one]",10 nM,7.37 µM,
"CC(=O)N1CC(Nc2cncc(N3C(=O)c4ccc(Cl)cc4C3(C)C)c2)C1 [Example 1, 2-[5-[(1-Acetylazetidin-3-yl)amino]pyridin-3-yl]-5-chloro-3,3-dimethylisoindol-1-one]",38 nM,5.84 µM,
"CCC(=O)N1CC(Nc2cncc(N3Cc4cc(Cl)ccc4C3=O)c2)C1 [Example 28, 5-Chloro-2-[5-[(1-propanoylazetidin-3-yl)amino]pyridin-3-yl]-3H-isoindol-1-one]",954 nM,> 30 µM,
"CC(C)S(=O)(=O)N1CCCC(Nc2cncc(N3C(=O)c4ccc(Cl)cc4C3(C)C)c2)C1 (single isomer, unassigned) [Example 27, 5-Chloro-3,3-dimethyl-2-[5-[[(3S or 3R)-1-propan-2-ylsulfonylpiperidin-3-yl]amino]pyridin-3-yl]isoindol-1-one]",1510 nM,> 30 µM,
"CCC(=O)N1CC(Nc2cncc(N3C(=O)c4ccc(Cl)cc4C3(C)C)c2)C1 [Example 9, 5-Chloro-3,3-dimethyl-2-[5-[(1-propanoylazetidin-3-yl)amino]pyridin-3-yl]isoindol-1-one]",10 nM,2.56 µM,
